The term AC50 denotes the concentration giving half of the maximal activity seen. Read a high AC50 as weaker potency.

Each structure is given as a SMILES string.

Consider 6 molecules from ChEMBL document CHEMBL5291721, “A preclinical secondary pharmacology resource illuminates target-adverse drug reaction associations of marketed drugs” (Nat Commun, 2023).

For one test, the target named is D(1A) dopamine receptor (Homo sapiens, UniProt P21728).
Test [1] addresses T1, Mu-type opioid receptor (Homo sapiens, UniProt P35372). As to the kind of experiment: biochemical. It is filed as functional.
The target in test [2] is T1, Mu-type opioid receptor.
Test [3] concerns the target 5-hydroxytryptamine receptor 2B (Homo sapiens, UniProt P41595).
Note: assay procedure not described here.

T1 sequence (P35372 whole entry): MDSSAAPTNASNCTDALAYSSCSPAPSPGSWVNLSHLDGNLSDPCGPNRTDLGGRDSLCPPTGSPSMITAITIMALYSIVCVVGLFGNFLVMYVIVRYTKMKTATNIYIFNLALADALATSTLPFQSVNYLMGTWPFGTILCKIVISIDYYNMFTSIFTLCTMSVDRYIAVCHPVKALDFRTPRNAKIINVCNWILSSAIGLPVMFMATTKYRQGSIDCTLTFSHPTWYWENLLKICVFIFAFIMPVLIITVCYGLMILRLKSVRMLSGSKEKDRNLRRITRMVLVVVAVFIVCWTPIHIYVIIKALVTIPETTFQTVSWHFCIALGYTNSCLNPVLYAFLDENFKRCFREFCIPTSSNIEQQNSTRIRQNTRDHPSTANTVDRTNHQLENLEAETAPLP
D(1A) dopamine receptor, sequence (P21728 whole entry): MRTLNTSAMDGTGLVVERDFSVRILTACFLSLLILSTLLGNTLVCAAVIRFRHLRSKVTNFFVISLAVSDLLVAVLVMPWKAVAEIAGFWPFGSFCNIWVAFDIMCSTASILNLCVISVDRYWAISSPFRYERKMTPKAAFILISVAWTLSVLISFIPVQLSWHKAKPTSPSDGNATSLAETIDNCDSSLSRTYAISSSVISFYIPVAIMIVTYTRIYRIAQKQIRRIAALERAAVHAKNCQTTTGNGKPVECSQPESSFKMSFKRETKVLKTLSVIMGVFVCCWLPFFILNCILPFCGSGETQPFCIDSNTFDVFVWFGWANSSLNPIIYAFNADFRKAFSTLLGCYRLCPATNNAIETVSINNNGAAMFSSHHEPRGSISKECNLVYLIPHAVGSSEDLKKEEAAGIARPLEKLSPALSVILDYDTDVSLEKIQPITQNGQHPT
5-hydroxytryptamine receptor 2B, sequence (P41595 whole entry): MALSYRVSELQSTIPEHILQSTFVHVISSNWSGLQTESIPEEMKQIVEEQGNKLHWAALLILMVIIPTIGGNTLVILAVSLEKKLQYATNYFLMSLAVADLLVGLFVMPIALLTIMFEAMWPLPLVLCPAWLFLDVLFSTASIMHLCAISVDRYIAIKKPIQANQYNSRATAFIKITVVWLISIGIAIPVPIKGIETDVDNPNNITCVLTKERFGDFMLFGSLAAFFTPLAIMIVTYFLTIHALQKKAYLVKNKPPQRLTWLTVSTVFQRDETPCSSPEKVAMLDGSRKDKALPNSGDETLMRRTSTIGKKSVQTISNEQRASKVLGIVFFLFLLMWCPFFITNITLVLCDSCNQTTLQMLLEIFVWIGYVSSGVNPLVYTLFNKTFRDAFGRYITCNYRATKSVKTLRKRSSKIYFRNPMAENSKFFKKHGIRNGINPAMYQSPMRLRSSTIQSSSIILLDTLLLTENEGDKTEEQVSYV

The molecule `Nc1ccncc1N` [AMIFAMPRIDINE] registered an AC50 on D(1A) dopamine receptor of over 30 µM.
`CC[C@H]1CN2CCc3cc(OC)c(OC)cc3[C@@H]2C[C@@H]1C[C@H]1NCCc2cc(OC)c(OC)cc21` [EMETINE]: the AC50 on Mu-type opioid receptor [1] is over 30 µM; on Mu-type opioid receptor [2], 18 µM; on D(1A) dopamine receptor, over 30 µM.
As for `Cc1cc(C)c(NC(=O)CN(CC(=O)O)CC(=O)O)c(C)c1Br` [MEBROFENIN], the AC50 on Mu-type opioid receptor [1] and on D(1A) dopamine receptor was over 30 µM each time.
Regarding `COc1ccccc1N1CCN(CC(O)COc2cccc3ccccc23)CC1` (configuration not stated) [NAFTOPIDIL], the values for the AC50 (in test [3]; at Mu-type opioid receptor [1]; on D(1A) dopamine receptor) were 0.047 µM, 26 µM and over 30 µM, respectively.
As for `Cc1oc(=O)oc1CN1CCN(c2cc3c(cc2F)c(=O)c(C(=O)O)c2n3C(C)S2)CC1` (configuration not stated) [PRULIFLOXACIN], the AC50 at Mu-type opioid receptor [1] and on D(1A) dopamine receptor was over 30 µM in each case.
For `C=CCCCCCCCCC(=O)O` [UNDECYLENIC ACID], on D(1A) dopamine receptor, the AC50 was over 30 µM.
